Source: ChEMBL document CHEMBL5291721, “A preclinical secondary pharmacology resource illuminates target-adverse drug reaction associations of marketed drugs” (Nat Commun, 2023)

How the values were obtained:
Androgen receptor [1] = biological target: T1, Androgen receptor (Rattus norvegicus, UniProt P15207); assay type: functional
T1 sequence (P15207 whole entry): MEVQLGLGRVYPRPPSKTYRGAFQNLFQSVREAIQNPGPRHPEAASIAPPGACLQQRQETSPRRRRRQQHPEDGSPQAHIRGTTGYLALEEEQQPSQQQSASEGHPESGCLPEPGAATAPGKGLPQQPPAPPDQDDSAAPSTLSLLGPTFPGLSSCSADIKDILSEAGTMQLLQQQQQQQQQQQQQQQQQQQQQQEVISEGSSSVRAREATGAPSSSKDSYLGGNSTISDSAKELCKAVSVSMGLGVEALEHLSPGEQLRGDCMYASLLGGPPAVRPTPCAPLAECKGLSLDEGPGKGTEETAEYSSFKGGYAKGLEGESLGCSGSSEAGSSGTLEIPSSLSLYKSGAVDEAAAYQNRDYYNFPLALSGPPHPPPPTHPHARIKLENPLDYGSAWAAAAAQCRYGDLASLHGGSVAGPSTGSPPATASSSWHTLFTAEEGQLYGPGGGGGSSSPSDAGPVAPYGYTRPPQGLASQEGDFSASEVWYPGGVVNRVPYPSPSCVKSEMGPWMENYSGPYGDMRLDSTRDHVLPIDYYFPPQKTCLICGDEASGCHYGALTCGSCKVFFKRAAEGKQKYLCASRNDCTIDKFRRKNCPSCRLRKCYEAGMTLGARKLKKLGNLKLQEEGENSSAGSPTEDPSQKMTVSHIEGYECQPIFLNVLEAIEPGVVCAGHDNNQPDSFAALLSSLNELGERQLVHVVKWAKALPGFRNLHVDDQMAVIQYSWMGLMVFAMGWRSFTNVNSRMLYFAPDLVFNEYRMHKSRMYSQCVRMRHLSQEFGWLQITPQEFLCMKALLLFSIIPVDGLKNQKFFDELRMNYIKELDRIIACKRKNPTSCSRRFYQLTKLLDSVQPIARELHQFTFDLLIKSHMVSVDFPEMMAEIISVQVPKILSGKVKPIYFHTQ

Androgen receptor [2] = biological target: T1, Androgen receptor; assay type: functional; remark: listed apart in the source
[3] = biological target: Gamma-aminobutyric acid receptor subunit alpha-1/alpha-2/beta-2/gamma-2 (Homo sapiens, UniProt P14867+P18507+P47869+P47870); assay type: functional, cell-based
Sequence of Gamma-aminobutyric acid receptor subunit alpha-1/alpha-2/beta-2/gamma-2 (P14867 whole entry): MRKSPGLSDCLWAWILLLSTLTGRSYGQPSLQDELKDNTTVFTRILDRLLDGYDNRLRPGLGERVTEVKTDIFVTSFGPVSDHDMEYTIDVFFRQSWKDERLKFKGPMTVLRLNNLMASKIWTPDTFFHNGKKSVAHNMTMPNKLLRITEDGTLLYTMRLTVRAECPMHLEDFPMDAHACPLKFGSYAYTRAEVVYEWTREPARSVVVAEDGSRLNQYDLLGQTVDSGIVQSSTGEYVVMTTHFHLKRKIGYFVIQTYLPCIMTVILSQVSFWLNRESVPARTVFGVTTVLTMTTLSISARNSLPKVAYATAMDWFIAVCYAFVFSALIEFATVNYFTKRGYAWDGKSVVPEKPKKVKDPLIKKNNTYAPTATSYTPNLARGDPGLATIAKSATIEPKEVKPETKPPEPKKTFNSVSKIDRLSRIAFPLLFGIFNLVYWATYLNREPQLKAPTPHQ
Sequence of Gamma-aminobutyric acid receptor subunit alpha-1/alpha-2/beta-2/gamma-2 (P47870 whole entry): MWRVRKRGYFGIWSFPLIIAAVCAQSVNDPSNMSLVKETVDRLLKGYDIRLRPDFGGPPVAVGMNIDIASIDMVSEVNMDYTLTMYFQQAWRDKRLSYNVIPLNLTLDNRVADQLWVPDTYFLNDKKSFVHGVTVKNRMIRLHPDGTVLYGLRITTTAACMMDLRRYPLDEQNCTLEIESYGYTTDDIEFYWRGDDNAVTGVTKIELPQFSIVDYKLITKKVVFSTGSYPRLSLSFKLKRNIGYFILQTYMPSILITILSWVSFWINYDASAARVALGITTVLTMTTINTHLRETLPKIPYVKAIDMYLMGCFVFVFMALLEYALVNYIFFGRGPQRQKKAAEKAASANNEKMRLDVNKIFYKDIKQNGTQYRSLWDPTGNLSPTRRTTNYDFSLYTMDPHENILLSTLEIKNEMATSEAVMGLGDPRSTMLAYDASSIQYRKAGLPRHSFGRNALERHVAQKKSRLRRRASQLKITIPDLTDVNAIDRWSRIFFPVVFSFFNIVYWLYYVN
Sequence of Gamma-aminobutyric acid receptor subunit alpha-1/alpha-2/beta-2/gamma-2 (P18507 whole entry): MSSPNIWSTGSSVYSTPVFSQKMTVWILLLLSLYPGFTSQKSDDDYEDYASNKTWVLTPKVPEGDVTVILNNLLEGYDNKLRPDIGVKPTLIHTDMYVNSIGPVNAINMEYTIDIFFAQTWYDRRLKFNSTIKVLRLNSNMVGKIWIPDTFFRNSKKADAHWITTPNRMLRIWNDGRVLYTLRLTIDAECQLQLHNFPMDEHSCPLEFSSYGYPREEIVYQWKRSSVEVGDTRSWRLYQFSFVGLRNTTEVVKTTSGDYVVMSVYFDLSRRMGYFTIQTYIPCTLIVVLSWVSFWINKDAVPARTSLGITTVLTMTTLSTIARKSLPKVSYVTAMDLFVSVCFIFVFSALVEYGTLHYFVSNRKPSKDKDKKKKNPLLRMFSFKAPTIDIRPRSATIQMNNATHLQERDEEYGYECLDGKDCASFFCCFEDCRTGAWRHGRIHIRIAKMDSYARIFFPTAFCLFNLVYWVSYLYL
Sequence of Gamma-aminobutyric acid receptor subunit alpha-1/alpha-2/beta-2/gamma-2 (P47869 whole entry): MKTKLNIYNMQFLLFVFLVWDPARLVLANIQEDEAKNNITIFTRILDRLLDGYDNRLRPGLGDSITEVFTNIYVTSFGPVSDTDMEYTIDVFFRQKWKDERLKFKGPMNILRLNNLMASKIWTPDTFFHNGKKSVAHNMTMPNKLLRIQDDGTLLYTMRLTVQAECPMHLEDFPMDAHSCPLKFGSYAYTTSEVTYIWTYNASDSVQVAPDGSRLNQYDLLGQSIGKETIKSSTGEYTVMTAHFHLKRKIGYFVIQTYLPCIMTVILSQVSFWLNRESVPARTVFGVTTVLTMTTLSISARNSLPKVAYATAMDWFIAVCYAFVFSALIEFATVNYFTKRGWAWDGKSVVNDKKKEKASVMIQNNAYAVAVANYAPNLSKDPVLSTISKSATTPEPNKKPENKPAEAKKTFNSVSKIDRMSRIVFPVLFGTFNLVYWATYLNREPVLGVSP

[4] = biological target: T2, Muscarinic acetylcholine receptor M2 (Homo sapiens, UniProt P08172)
T2 sequence (P08172 whole entry): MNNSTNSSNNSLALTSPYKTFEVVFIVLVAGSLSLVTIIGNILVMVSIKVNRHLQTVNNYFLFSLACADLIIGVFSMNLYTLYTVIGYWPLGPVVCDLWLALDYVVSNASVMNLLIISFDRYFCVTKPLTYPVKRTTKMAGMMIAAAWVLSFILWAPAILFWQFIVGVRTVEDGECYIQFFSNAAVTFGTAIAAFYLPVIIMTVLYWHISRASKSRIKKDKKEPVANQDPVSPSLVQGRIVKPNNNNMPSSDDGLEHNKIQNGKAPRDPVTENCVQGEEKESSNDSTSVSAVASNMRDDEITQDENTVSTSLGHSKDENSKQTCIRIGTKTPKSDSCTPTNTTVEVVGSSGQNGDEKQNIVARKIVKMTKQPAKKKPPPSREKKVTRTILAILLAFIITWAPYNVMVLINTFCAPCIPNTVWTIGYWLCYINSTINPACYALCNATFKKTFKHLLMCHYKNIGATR

[5] = biological target: T3, 5-hydroxytryptamine receptor 1A (Homo sapiens, UniProt P08908)
T3 sequence (P08908 whole entry): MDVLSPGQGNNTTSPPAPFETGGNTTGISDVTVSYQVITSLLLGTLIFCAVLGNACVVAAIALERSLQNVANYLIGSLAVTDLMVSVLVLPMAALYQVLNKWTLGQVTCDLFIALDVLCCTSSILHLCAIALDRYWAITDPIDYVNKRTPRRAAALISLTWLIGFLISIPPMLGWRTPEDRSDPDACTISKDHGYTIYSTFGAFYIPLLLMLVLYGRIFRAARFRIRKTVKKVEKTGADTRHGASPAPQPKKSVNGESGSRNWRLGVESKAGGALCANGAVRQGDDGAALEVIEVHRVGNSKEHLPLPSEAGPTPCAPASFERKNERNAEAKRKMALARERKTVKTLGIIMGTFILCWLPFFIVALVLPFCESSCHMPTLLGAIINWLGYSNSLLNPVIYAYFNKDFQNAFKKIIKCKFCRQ

D(1A) dopamine receptor = D(1A) dopamine receptor (Homo sapiens, UniProt P21728)
Sequence of D(1A) dopamine receptor (P21728 whole entry): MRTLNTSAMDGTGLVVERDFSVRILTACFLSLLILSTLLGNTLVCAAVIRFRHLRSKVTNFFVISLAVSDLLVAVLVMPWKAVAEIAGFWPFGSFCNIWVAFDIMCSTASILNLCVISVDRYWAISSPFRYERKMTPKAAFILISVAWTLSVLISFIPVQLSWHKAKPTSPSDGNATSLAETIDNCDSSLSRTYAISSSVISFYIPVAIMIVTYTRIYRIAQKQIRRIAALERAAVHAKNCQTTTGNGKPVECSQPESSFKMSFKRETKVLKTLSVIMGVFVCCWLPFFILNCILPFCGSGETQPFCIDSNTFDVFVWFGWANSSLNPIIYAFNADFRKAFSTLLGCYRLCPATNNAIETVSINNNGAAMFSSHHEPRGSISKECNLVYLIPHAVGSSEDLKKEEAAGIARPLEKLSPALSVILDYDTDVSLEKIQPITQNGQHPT

[6] = biological target: Beta-3 adrenergic receptor (Homo sapiens, UniProt P13945)
Sequence of Beta-3 adrenergic receptor (P13945 whole entry): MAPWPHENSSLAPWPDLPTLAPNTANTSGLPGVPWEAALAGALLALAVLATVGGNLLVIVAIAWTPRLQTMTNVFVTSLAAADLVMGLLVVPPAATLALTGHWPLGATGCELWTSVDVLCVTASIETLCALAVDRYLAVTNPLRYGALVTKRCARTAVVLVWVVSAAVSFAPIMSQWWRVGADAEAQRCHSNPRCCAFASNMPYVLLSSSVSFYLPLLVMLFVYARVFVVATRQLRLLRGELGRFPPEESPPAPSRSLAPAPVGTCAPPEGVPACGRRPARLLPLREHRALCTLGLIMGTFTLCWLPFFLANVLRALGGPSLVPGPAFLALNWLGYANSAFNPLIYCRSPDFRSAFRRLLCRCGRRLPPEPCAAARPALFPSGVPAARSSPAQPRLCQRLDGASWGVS

Progesterone receptor = biological target: T4, Progesterone receptor (Homo sapiens, UniProt P06401)
T4 sequence (P06401 whole entry): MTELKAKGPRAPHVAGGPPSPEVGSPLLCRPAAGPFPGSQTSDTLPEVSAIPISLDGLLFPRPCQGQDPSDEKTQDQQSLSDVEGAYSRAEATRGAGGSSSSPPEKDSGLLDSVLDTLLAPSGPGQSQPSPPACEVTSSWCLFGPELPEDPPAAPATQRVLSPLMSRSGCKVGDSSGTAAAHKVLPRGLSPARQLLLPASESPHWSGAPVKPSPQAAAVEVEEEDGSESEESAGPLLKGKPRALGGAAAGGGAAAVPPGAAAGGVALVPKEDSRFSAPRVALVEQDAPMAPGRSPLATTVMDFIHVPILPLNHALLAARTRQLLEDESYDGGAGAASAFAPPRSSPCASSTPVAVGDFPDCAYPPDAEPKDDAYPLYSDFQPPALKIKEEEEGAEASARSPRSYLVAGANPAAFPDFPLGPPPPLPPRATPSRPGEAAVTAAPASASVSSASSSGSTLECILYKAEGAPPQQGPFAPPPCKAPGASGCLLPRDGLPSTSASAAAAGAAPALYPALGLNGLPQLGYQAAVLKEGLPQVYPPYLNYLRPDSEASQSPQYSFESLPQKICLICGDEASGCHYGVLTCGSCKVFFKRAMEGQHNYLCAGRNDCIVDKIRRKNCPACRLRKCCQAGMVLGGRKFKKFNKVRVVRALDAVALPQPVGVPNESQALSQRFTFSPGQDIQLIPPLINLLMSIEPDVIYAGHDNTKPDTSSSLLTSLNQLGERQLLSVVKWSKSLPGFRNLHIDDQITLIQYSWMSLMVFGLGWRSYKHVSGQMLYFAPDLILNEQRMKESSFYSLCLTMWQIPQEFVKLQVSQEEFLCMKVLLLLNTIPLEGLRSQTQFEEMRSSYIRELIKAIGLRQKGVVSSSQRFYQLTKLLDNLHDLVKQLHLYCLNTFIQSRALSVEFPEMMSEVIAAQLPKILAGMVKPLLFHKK

[7] = biological target: Beta-1 adrenergic receptor (Homo sapiens, UniProt P08588); assay type: functional, cell-based
Sequence of Beta-1 adrenergic receptor (P08588 whole entry): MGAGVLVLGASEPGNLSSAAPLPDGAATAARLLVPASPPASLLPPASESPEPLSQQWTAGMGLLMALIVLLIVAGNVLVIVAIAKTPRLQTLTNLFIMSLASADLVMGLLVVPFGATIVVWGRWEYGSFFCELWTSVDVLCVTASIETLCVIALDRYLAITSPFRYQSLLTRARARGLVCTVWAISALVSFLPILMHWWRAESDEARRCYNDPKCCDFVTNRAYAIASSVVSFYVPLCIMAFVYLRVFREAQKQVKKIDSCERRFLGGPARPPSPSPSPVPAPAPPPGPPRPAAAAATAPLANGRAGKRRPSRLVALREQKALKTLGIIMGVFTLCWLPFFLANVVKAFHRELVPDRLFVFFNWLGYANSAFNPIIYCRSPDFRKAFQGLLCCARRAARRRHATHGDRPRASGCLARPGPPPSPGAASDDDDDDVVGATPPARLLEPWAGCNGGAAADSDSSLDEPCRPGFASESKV
Also: assay procedure not described here.

Oc1ccc2c(c1)[C@@]13CCCC[C@@]1(O)[C@@H](C2)N(CC1CCC1)CC3 [BUTORPHANOL]
AC50 (Androgen receptor [1]): > 30 µM | AC50 (Androgen receptor [2]): > 30 µM | AC50 [3]: > 30 µM

Cn1cnc2c(F)c(Nc3ccc(Br)cc3Cl)c(C(=O)NOCCO)cc21 [SELUMETINIB]
AC50 [4]: > 10 µM | AC50 [5]: > 10 µM | AC50 (D(1A) dopamine receptor): > 10 µM | AC50 [6]: > 30 µM | AC50 (Progesterone receptor): > 30 µM

Cc1ncc2n1-c1ccc(Cl)cc1C(c1ccccc1F)=NC2 [MIDAZOLAM]
AC50 [5]: > 10 µM | AC50 (Progesterone receptor): > 30 µM

C=C1/C(=C\C=C2/CCC[C@]3(C)[C@@H]([C@H](C)/C=C/[C@@H](O)C4CC4)CC[C@@H]23)C[C@@H](O)C[C@@H]1O [CALCIPOTRIENE]
AC50 (Androgen receptor [1]): 28 µM | AC50 [5]: > 30 µM | AC50 (Androgen receptor [2]): > 30 µM

C#CCOc1ccc(N)cc1C(=O)NCCCC [PARSALMIDE]
AC50 (Androgen receptor [1]): > 30 µM | AC50 (Androgen receptor [2]): > 30 µM

CCC(COC(=O)c1cc(OC)c(OC)c(OC)c1)(c1ccccc1)N(C)C (stereo not drawn) [TRIMEBUTINE]
AC50 [7]: > 30 µM

COc1ccc(-c2noc(CC(=O)O)c2-c2ccc(OC)cc2)cc1 [MOFEZOLAC]
AC50 (Androgen receptor [1]): > 30 µM | AC50 [7]: > 30 µM | AC50 (Androgen receptor [2]): > 30 µM

CC(=O)O[C@H](CC(=O)[O-])C[N+](C)(C)C [ACETYLCARNITINE]
AC50 [7]: > 30 µM

O=C(O)c1ccccc1Nc1cc(Cl)ccc1C(=O)O [LOBENZARIT]
AC50 [7]: > 30 µM

Cn1c(=O)cc(N2CCC[C@@H](N)C2)n(Cc2ccccc2C#N)c1=O [ALOGLIPTIN]
AC50 [4]: > 10 µM | AC50 [5]: > 10 µM | AC50 (D(1A) dopamine receptor): > 10 µM | AC50 [6]: > 30 µM | AC50 (Progesterone receptor): > 30 µM

CCN(CC)C(=O)Nc1ccc(OCC(O)CNC(C)(C)C)c(C(C)=O)c1 (stereo not drawn) [CELIPROLOL]
AC50 (Androgen receptor [1]): > 30 µM | AC50 [7]: > 30 µM | AC50 (Androgen receptor [2]): > 30 µM

CCN(CC)CCN1C(=O)CN=C(c2ccccc2F)c2cc(Cl)ccc21 [FLURAZEPAM]
AC50 [5]: 5.47 µM

CC(=O)OCC(=O)[C@@]1(O)[C@H](C)C[C@H]2[C@@H]3CCC4=CC(=O)C=C[C@]4(C)[C@@]3(F)[C@@H](O)C[C@@]21C [DEXAMETHASONE ACETATE]
AC50 [4]: > 10 µM | AC50 [5]: > 10 µM | AC50 [6]: > 30 µM | AC50 (Progesterone receptor): > 30 µM

COc1ccc2nc3cc(Cl)ccc3c(Nc3cc(CN4CCCC4)c(O)c(CN4CCCC4)c3)c2n1 [PYRONARIDINE]
AC50 (Androgen receptor [1]): > 10 µM | AC50 (Androgen receptor [2]): > 30 µM

CC(=O)[C@@]1(O)CC[C@H]2[C@@H]3C=C(Cl)C4=CC(=O)[C@@H]5C[C@@H]5[C@]4(C)[C@H]3CC[C@@]21C [CYPROTERONE]
AC50 (D(1A) dopamine receptor): > 10 µM

CCN1CCCC1CNC(=O)c1cc(S(=O)(=O)CC)c(N)cc1OC (stereo not drawn) [AMISULPRIDE]
AC50 [3]: > 30 µM

NC1CCN(c2nc3c(cc2F)c(=O)c(C(=O)O)cn3-c2ccc(F)cc2F)C1 (stereo not drawn) [TOSUFLOXACIN]
AC50 (Androgen receptor [1]): > 30 µM | AC50 (Androgen receptor [2]): > 30 µM

Nc1cc(-c2ccncc2)c[nH]c1=O [INAMRINONE]
AC50 (Progesterone receptor): > 20 µM

C[N@+]1(CCF)[C@@H]2CC[C@H]1C[C@@H](OC(=O)C(O)(c1ccccc1)c1ccccc1)C2
AC50 [4]: 0.2 µM

CC(=O)[C@]1(O)Cc2c(O)c3c(c(O)c2[C@@H](O[C@H]2C[C@H](N)[C@H](O)[C@H](C)O2)C1)C(=O)c1ccccc1C3=O [IDARUBICIN]
AC50 (Androgen receptor [2]): 17 µM

NC(=O)CN1CCCC1=O
AC50 [3]: > 30 µM

OCc1cc(C(O)CNCCCCCCOCCCCc2ccccc2)ccc1O (stereo not drawn) [SALMETEROL]
AC50 (D(1A) dopamine receptor): > 10 µM

O=C(O)CCNC(=O)c1ccccc1 [BETAMIPRON]
AC50 [7]: > 30 µM

CCCCCCCCCCCCCCCCCCCCCC(=O)Nc1ccn([C@@H]2O[C@H](CO)[C@@H](O)[C@@H]2O)c(=O)n1 [ENOCITABINE]
AC50 (Androgen receptor [1]): > 30 µM | AC50 (Androgen receptor [2]): > 30 µM
